{
  "source": "patent US20230151034A1",
  "about": "(COCRYSTAL PHARMA, INC., priority 2020, published 2023)",
  "data": [
    {"target": "SARS2 protease (Severe acute respiratory syndrome coronavirus 2, UniProt P0DTD1)", "experiment": "SARS-CoV-2 protease inhibition assay (SARS2 FRET protease assay)", "assay_type": "biochemical", "settings": "Table E; SARS-CoV-2 protease inhibition; read-out: IC50", "procedure": "Viral protease assays: The antiviral activities of inhibitors were determined by FRET (Fluorescence Resonance Energy Transfer) assay. Purified viral protease was incubated with the protease substrate peptide (Edans-DFHLQ/GP-Dabcyl) and inhibitor, and IC50 values were subsequently determined by the fluorescence signals.\nThe SARS2 FRET protease assay was performed in 20 mM HEPES-Na pH 7, 120 mM NaCl, 0.4 mM EDTA, 0.01% Triton, 5% glycerol, and 4 mM DTT. A self-quenching peptide substrate 5-FAM-TSA VLQ SGF RKK (5TAMRA)-NH2 was custom synthesized by Anaspec. Compounds were diluted in 3-fold serial dilutions to final concentrations of 20 μM to 1.0 nM. SARS2 protease was added to a final concentration of 25 nM, depending on the enzyme activity level, and the peptide substrate was added to a final concentration of 1.3 μM. The assay was incubated 30 minutes at 30° C. and read in a Perkin Elmer Envision with excitation at 473 nm and emission measurement at 519 nm.", "units": {"IC50": "µM"}, "values": [
      {"compound": "CCCCCCCC1CC/C=C/CC(C(=O)NC)C[C@@H](C(=O)N(C)OC)NC(=O)C(CC(C)C)NC(=O)O1", "note": "(single isomer, unassigned) [Compound B32]", "IC50": "> 200"},
      {"compound": "CCCCCCCC1CC/C=C/CC(C(=O)NC)C[C@@H](C(=O)N(C)OC)NC(=O)C(CC(C)C)NC(=O)O1", "note": "(single isomer, unassigned) [Compound B33]", "IC50": "> 200"},
      {"compound": "CCCCCCCC1CC/C=C/CC(C(=O)NC)C[C@@H](C(=O)N(C)OC)NC(=O)C(CC(C)C)NC(=O)O1", "note": "(single isomer, unassigned) [Compound B34]", "IC50": "> 200"},
      {"compound": "CCCCCCCC1CC/C=C/CC(C(=O)NC)C[C@@H](C(=O)N(C)OC)NC(=O)C(CC(C)C)NC(=O)O1", "note": "(single isomer, unassigned) [Compound B35]", "IC50": "> 200"},
      {"compound": "CCCCCCCC1CC/C=C/CC(C(=O)NC)C[C@@H](C(=O)N(C)OC)NC(=O)C(CC(C)C)NC(=O)O1", "note": "(single isomer, unassigned) [Compound B36]", "IC50": "> 200"},
      {"compound": "CCCCCCCCC(=O)N[C@@H](CC(C)C)C(=O)NC1CCC(=O)N(C)C1(O)C(=O)NC(C)C", "note": "(stereo in doubt) [Compound A4, (3S)-2-hydroxy-N-isopropyl-1-methyl-3-((S)-4-methyl-2-nonanamidopentanamido)-6-oxopiperidine-2-carboxamide]", "IC50": "> 200"},
      {"compound": "CCS(=O)(=O)NCCN(C)C(=O)CC[C@H](NC(=O)[C@H](CC1CCCCC1)NC(=O)OCc1cccc(Cl)c1)C(=O)N(C)OC", "note": "(stereo in doubt) [Compound A29, 3-Chlorobenzyl ((S)-3-cyclohexyl-1-(((S)-5-((2-(ethylsulfonamido)ethyl)(methyl)amino)-1-(methoxy(methyl)amino)-1,5-dioxopentan-2-yl)amino)-1-oxopropan-2-yl)carbamate]", "IC50": "> 200"},
      {"compound": "CON(C)C(=O)[C@H](CCC(=O)N(C)CCc1ccccc1)NC(=O)[C@H](CC1CCCCC1)NC(=O)OCc1cccc(Cl)c1", "note": "(stereo in doubt) [Compound A30, 3-chlorobenzyl ((S)-3-cyclohexyl-1-(((S)-1-(methoxy(methyl)amino)-5-(methyl(phenethyl)amino)-1,5-dioxopentan-2-yl)amino)-1-oxopropan-2-yl)carbamate]", "IC50": "> 200"},
      {"compound": "CCOC(=O)NCCN(C)C(=O)CC[C@H](NC(=O)[C@H](CC1CCCCC1)NC(=O)OCc1cccc(Cl)c1)C(=O)N(C)OC", "note": "(stereo in doubt) [Compound A32, 3-Chlorobenzyl ((12S,15S)-16-cyclohexyl-12-(methoxy(methyl)carbamoyl)-8-methyl-4,9,14-trioxo-3-oxa-5,8,13-triazahexadecan-15-yl)carbamate]", "IC50": "> 200"},
      {"compound": "CON(C)C(=O)[C@H](CCC(=O)N(C)CC(C)c1ccccc1)NC(=O)[C@H](CC1CCCCC1)NC(=O)OCc1cccc(Cl)c1", "note": "(stereo in doubt) [Compound A35, 3-chlorobenzyl ((2S)-3-cyclohexyl-1-(((2S)-1-(methoxy(methyl)amino)-5-(methyl(2-phenylpropyl)amino)-1,5-dioxopentan-2-yl)amino)-1-oxopropan-2-yl)carbamate]", "IC50": "> 200"},
      {"compound": "CON(C)C(=O)[C@H](CC(C)C(=O)N(C)CCc1ccccc1)NC(=O)[C@H](CC1CCCCC1)NC(=O)OCc1cccc(Cl)c1", "note": "(stereo in doubt) [Compound A37, 3-Chlorobenzyl ((2S)-3-cyclohexyl-1-(((2S)-1-(methoxy (methyl)amino)-4-methyl-5-(methyl (phenethyl)amino)-1,5-dioxopentan-2-yl)amino)-1-oxopropan-2-yl) carbamate]", "IC50": "> 200"},
      {"compound": "CON(C)C(=O)[C@H](CCC(=O)N(C)CCc1ccc(Cl)cc1)NC(=O)[C@H](CC1CCCCC1)NC(=O)OCc1cccc(Cl)c1", "note": "(stereo in doubt) [Compound A41, 3-Chlorobenzyl ((S)-1-(((S)-5-((4-chlorophenethyl)(methyl)amino)-1-(methoxy(methyl)amino)-1,5-dioxopentan-2-yl)amino)-3-cyclohexyl-1-oxopropan-2-yl)carbamate]", "IC50": 30},
      {"compound": "CCN(CCc1ccccc1)C(=O)CC[C@H](NC(=O)[C@H](CC1CCCCC1)NC(=O)OCc1cccc(Cl)c1)C(=O)N(C)OC", "note": "(stereo in doubt) [Compound A42, 3-Chlorobenzyl ((S)-3-cyclohexyl-1-(((S)-5-(ethyl(phenethyl)amino)-1-(methoxy(methyl)amino)-1,5-dioxopentan-2-yl)amino)-1-oxopropan-2-yl)carbamate]", "IC50": "> 200"},
      {"compound": "CCCCCCCC1CCCC/C=C/CC(C(=O)N(C)C)CC(C=O)NC(=O)[C@H](CC(C)C)NC1=O", "note": "(stereo in doubt) [Compound B7, (2S,5S,E)-5-formyl-15-heptyl-2-isobutyl-N,N-dimethyl-3,16-dioxo-1,4-diazacyclohexadec-9-ene-7-carboxamide]", "IC50": "> 200"},
      {"compound": "CCCCCCCC1CCCCCCCC(C(=O)N(C)C)CC(C(=O)N(C)OC)NC(=O)[C@H](CC(C)C)NC1=O", "note": "(stereo in doubt) [Compound B9, (2S,5S)-15-heptyl-2-isobutyl-N^5-methoxy-N^5,N^7,N^7-trimethyl-3,16-dioxo-1,4-diazacyclohexadecane-5,7-dicarboxamide]", "IC50": "> 200"},
      {"compound": "CCCCCCCC1CC/C=C\\CC(C(=O)N(C)C)CC(C=O)NC(=O)[C@H](CC(C)C)NC1=O", "note": "(stereo in doubt) [Compound B10, (2S,5S,Z)-5-formyl-13-heptyl-2-isobutyl-N,N-dimethyl-3,14-dioxo-1,4-diazacyclotetradec-9-ene-7-carboxamide]", "IC50": 105},
      {"compound": "CCCCCCCC1CC/C=C\\CC(C(=O)N(C)C)CC(C(=O)N(C)OC)NC(=O)[C@H](CC(C)C)NC1=O", "note": "(stereo in doubt) [Compound B11, (2S,5S,Z)-13-heptyl-2-isobutyl-N^5-methoxy-N^5,N^7,N^7-trimethyl-3,14-dioxo-1,4-diazacyclotetradec-9-ene-5,7-dicarboxamide]", "IC50": "> 200"},
      {"compound": "CCCCCCCC1CCC/C=C/CC(C(=O)N(C)C)CC(C(=O)N(C)OC)NC(=O)[C@H](CC(C)C)NC(=O)O1", "note": "(stereo in doubt) [Compound B13, (4S,7S,E)-16-Heptyl-4-isobutyl-N^7-methoxy-N^7,N^9,N^9-trimethyl-2,5-dioxo-1-oxa-3,6-diazacyclohexadec-11-ene-7,9-dicarboxamide]", "IC50": "> 200"},
      {"compound": "CCCCCCC1CCC/C=C\\CC(C(=O)N(C)C)CC(C(=O)N(C)OC)NC(=O)C(CC(C)C)NC(=O)C1", "note": "(stereo in doubt) [Compound B14, (2S,5S,Z)-14-hexyl-2-isobutyl-N5-methoxy-N^5,N^7,N^7-trimethyl-3,16-dioxo-1,4-diazacyclohexadec-9-ene-5,7-dicarboxamide]", "IC50": "> 200"},
      {"compound": "CCCCCCCC1CCCCCCCC(C(=O)N(C)C)CC(C=O)NC(=O)[C@H](CC(C)C)NC1=O", "note": "(stereo in doubt) [Compound B17, (2S,5S)-5-formyl-15-heptyl-2-isobutyl-N,N-dimethyl-3,16-dioxo-1,4-diazacyclohexadecane-7-carboxamide]", "IC50": "> 200"},
      {"compound": "CCCCCCCC1CCCCCC(C(=O)N(C)C)CC(C=O)NC(=O)[C@H](CC(C)C)NC1=O", "note": "(stereo in doubt) [Compound B18, (2S,5S)-5-formyl-13-heptyl-2-isobutyl-N,N-dimethyl-3,14-dioxo-1,4-diazacyclotetradecane-7-carboxamide]", "IC50": "> 200"},
      {"compound": "CCCCCCCC1CCCCCC(C(=O)N(C)C)CC(C(=O)N(C)OC)NC(=O)[C@H](CC(C)C)NC1=O", "note": "(stereo in doubt) [Compound B19, (2S,5S)-13-heptyl-2-isobutyl-N^5-methoxy-N^5,N^7,N^7-trimethyl-3,14-dioxo-1,4-diazacyclotetradecane-5,7-dicarboxamide]", "IC50": "> 200"}
    ]}
  ]
}
